Test results reported in PubChem BioAssay (NCI).
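Abbreviation: GI50, concentration required for 50% inhibition of growth. At the TGI there is no net growth.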

Tests used:
Test in all cases: DTP human tumour cell line panel, 384-well format
786-0 renal = system: 786-0 renal
A498 renal = system: A498 renal
A549 NSCLC = system: A549 NSCLC
ACHN renal = system: ACHN renal
BT-549 breast = system: BT-549 breast
CAKI-1 renal = system: CAKI-1 renal
CCRF-CEM leukemia = system: CCRF-CEM leukemia
COLO 205 colon = system: COLO 205 colon
DU-145 prostate = system: DU-145 prostate
EKVX NSCLC = system: EKVX NSCLC
HCC-2998 colon = system: HCC-2998 colon
HCT-116 colon = system: HCT-116 colon
HCT-15 colon = system: HCT-15 colon
HL-60(TB) leukemia = system: HL-60(TB) leukemia
HOP-62 NSCLC = system: HOP-62 NSCLC
HOP-92 NSCLC = system: HOP-92 NSCLC
HS 578T breast = system: HS 578T breast
HT29 colon = system: HT29 colon
IGROV1 ovarian = system: IGROV1 ovarian
K-562 leukemia = system: K-562 leukemia
KM12 colon = system: KM12 colon
LOX IMVI melanoma = system: LOX IMVI melanoma
M14 melanoma = system: M14 melanoma
MALME-3M melanoma = system: MALME-3M melanoma
MCF7 breast = system: MCF7 breast
MDA-MB-231 breast = system: MDA-MB-231 breast
MDA-MB-435 melanoma = system: MDA-MB-435 melanoma
MDA-MB-468 breast = system: MDA-MB-468 breast
MOLT-4 leukemia = system: MOLT-4 leukemia
NCI-H226 lung = system: NCI-H226 lung
NCI-H23 lung = system: NCI-H23 lung
NCI-H322M lung = system: NCI-H322M lung
NCI-H460 NSCLC = system: NCI-H460 NSCLC
NCI-H522 lung = system: NCI-H522 lung
NCI/ADR-RES ovarian = system: NCI/ADR-RES ovarian
OVCAR-3 ovarian = system: OVCAR-3 ovarian
OVCAR-4 ovarian = system: OVCAR-4 ovarian
OVCAR-8 ovarian = system: OVCAR-8 ovarian
PC-3 prostate = system: PC-3 prostate
RPMI-8226 leukemia = system: RPMI-8226 leukemia
RXF 393 renal = system: RXF 393 renal
SF-268 CNS = system: SF-268 CNS
SF-295 CNS = system: SF-295 CNS
SF-539 CNS = system: SF-539 CNS
SK-MEL-28 melanoma = system: SK-MEL-28 melanoma
SK-MEL-5 melanoma = system: SK-MEL-5 melanoma
SK-OV-3 ovarian = system: SK-OV-3 ovarian
SN12C renal = system: SN12C renal
SNB-19 CNS = system: SNB-19 CNS
SNB-75 CNS = system: SNB-75 CNS
SR leukemia = system: SR leukemia
SW-620 colon = system: SW-620 colon
T-47D breast = system: T-47D breast
TK-10 renal = system: TK-10 renal
U251 glioblastoma = system: U251 glioblastoma
UACC-257 melanoma = system: UACC-257 melanoma
UACC-62 melanoma = system: UACC-62 melanoma
UO-31 renal = system: UO-31 renal

CC(=O)N1c2ccc(-c3ccc(C(=O)O)cc3)cc2[C@H](Nc2ccc(Cl)cc2)C[C@@H]1C
GI50 ([…]-0 renal): 74.9 nM
TGI (786-0 renal): 24.2 µM
GI50 (A498 renal): 239 nM
TGI (A498 renal): 13.5 µM
GI50 (A549 NSCLC): 456 nM
TGI (A549 NSCLC): 18.6 µM
GI50 (ACHN renal): 558 nM
TGI (ACHN renal): 19.7 µM
GI50 (BT-549 breast): 43 nM
TGI (BT-549 breast): 11.4 µM
GI50 (CAKI-1 renal): 31.3 nM
TGI (CAKI-1 renal): 2560 nM
GI50 (CCRF-CEM leukemia): 60.5 nM
TGI (CCRF-CEM leukemia): 8.77 µM
GI50 (COLO 205 colon): 146 nM
TGI (COLO 205 colon): 10.9 µM
GI50 (DU-145 prostate): 638 nM
TGI (DU-145 prostate): > 100 µM
GI50 (EKVX NSCLC): 1390 nM
TGI (EKVX NSCLC): 46.4 µM
GI50 (HCC-2998 colon): 62.8 nM
TGI (HCC-2998 colon): 676 nM
GI50 (HCT-116 colon): 180 nM
TGI (HCT-116 colon): 12.8 µM
GI50 (HCT-15 colon): 53.5 nM
TGI (HCT-15 colon): 10.3 µM
GI50 (HL-60(TB) leukemia): < 10 nM
TGI (HL-60(TB) leukemia): 25.9 nM
GI50 (HOP-62 NSCLC): 47.8 nM
TGI (HOP-62 NSCLC): 7.2 µM
GI50 (HOP-92 NSCLC): 49.7 nM
TGI (HOP-92 NSCLC): 16.4 µM
GI50 (HS 578T breast): 20.7 nM
TGI (HS 578T breast): 185 nM
GI50 (HT29 colon): 73.3 nM
TGI (HT29 colon): 15.7 µM
GI50 (IGROV1 ovarian): 75.6 nM
TGI (IGROV1 ovarian): 18.8 µM
GI50 (K-562 leukemia): 84.2 nM
TGI (K-562 leukemia): 16.8 µM
GI50 (KM12 colon): 193 nM
TGI (KM12 colon): 15.5 µM
GI50 (LOX IMVI melanoma): 48.1 nM
TGI (LOX IMVI melanoma): 209 nM
GI50 (M14 melanoma): 144 nM
TGI (M14 melanoma): 15.5 µM
GI50 (MALME-3M melanoma): 30.9 nM
TGI (MALME-3M melanoma): 1600 nM
GI50 (MCF7 breast): 19.5 nM
TGI (MCF7 breast): 10.2 µM
GI50 (MDA-MB-231 breast): 61.8 nM
TGI (MDA-MB-231 breast): 75.2 µM
GI50 (MDA-MB-435 melanoma): 669 nM
TGI (MDA-MB-435 melanoma): 42.6 µM
GI50 (MDA-MB-468 breast): 171 nM
TGI (MDA-MB-468 breast): 10.5 µM
GI50 (MOLT-4 leukemia): 54.1 nM
TGI (MOLT-4 leukemia): 2060 nM
GI50 (NCI-H226 lung): 57.4 nM
TGI (NCI-H226 lung): 2510 nM
GI50 (NCI-H23 lung): 137 nM
TGI (NCI-H23 lung): 11.4 µM
GI50 (NCI-H322M lung): 201 nM
TGI (NCI-H322M lung): 13.3 µM
GI50 (NCI-H460 NSCLC): 467 nM
TGI (NCI-H460 NSCLC): 15.4 µM
GI50 (NCI-H522 lung): 24.3 nM
TGI (NCI-H522 lung): 1310 nM
GI50 (NCI/ADR-RES ovarian): 129 nM
TGI (NCI/ADR-RES ovarian): 3.3 µM
GI50 (OVCAR-3 ovarian): 57 nM
TGI (OVCAR-3 ovarian): 11.3 µM
GI50 (OVCAR-4 ovarian): 104 nM
TGI (OVCAR-4 ovarian): 659 nM
GI50 (OVCAR-8 ovarian): 77 nM
TGI (OVCAR-8 ovarian): 3.1 µM
GI50 (PC-3 prostate): 369 nM
TGI (PC-3 prostate): 20.6 µM
GI50 (RPMI-8226 leukemia): < 10 nM
TGI (RPMI-8226 leukemia): 108 nM
GI50 (RXF 393 renal): 702 nM
TGI (RXF 393 renal): 20.8 µM
GI50 (SF-268 CNS): 386 nM
TGI (SF-268 CNS): 19.5 µM
GI50 (SF-295 CNS): 975 nM
TGI (SF-295 CNS): 17.3 µM
GI50 (SF-539 CNS): 314 nM
TGI (SF-539 CNS): 11.2 µM
GI50 (SK-MEL-28 melanoma): 89.5 nM
TGI (SK-MEL-28 melanoma): 15 µM
GI50 (SK-MEL-5 melanoma): 208 nM
TGI (SK-MEL-5 melanoma): 13.1 µM
GI50 (SK-OV-3 ovarian): 101 nM
TGI (SK-OV-3 ovarian): 14.1 µM
GI50 (SN12C renal): 108 nM
TGI (SN12C renal): 20.9 µM
GI50 (SNB-19 CNS): 166 nM
TGI (SNB-19 CNS): 27 µM
GI50 (SNB-75 CNS): 213 nM
TGI (SNB-75 CNS): 49.3 µM
GI50 (SR leukemia): < 10 nM
TGI (SR leukemia): 50.2 nM
GI50 (SW-620 colon): 2990 nM
TGI (SW-620 colon): 22 µM
GI50 (T-47D breast): 240 nM
TGI (T-47D breast): 12.4 µM
GI50 (TK-10 renal): 48.6 nM
TGI (TK-10 renal): 2650 nM
GI50 (U251 glioblastoma): 488 nM
TGI (U251 glioblastoma): 21.7 µM
GI50 (UACC-257 melanoma): 192 nM
TGI (UACC-257 melanoma): 53.6 µM
GI50 (UACC-62 melanoma): 22.2 nM
TGI (UACC-62 melanoma): 2740 nM
GI50 (UO-31 renal): 200 nM
TGI (UO-31 renal): 13 µM
